Values quoted from earlier work in paper PMC9289467, “A Novel Multifunctional 5,6-Dimethoxy-Indanone-Chalcone-Carbamate Hybrids Alleviates Cognitive Decline in Alzheimer’s Disease by Dual Inhibition of Acetylcholinesterase and Inflammation” (Frontiers in Aging Neuroscience, 2022).

Assays:
[1] = test system: cerebrospinal fluid (CSF) Aβ; conditions: chronic treatment, patients with AD; ref Nitsch et al., 2000; cited from earlier work
[2] = test system: AChE-induced Aβ fibrillization; conditions: PAS inhibitors; ref Inestrosa et al., 1996; cited from earlier work
APP processing = conditions: rat brains; ref Farber et al., 1995; cited from earlier work

| Compound | cerebrospinal fluid (CSF) Aβ levels [1] | effect of AChE on Aβ fibril aggregation process [2] | APP processing (APP processing) |
| --- | --- | --- | --- |
| CC1OC2(CS1)CN1CCC2CC1 (centres unmarked) [AF102B] | markedly lowered | – | – |
| CC[N+](C)(CC)CCC[n+]1c(-c2ccccc2)c2cc(N)ccc2c2ccc(N)cc21 [Propidium] | – | capable of preventing | – |
| CNC(=O)Oc1ccc2c(c1)[C@]1(C)CCN(C)[C@@H]1N2C [physostigmine] | did not show a significant effect | – | did not change APP processing |
| fasciculin | – | capable of preventing | – |
